From paper doi:10.1101/2024.08.13.607785v1 (biorxiv, 2024)
Like-named read-outs stand apart in the source and are kept apart here. Values belong to the compound of their own block, whether it stands above or below them.

What was measured:
Assay in all cases: biochemical
Design in all cases: species or system human cell line lysate
[1] = target: MAP/microtubule affinity-regulating kinase 3 ; MARK3 ; P27448 (Homo sapiens, UniProt P27448)
[2] = target: Mitogen-activated protein kinase kinase kinase 1 ; MAP3K1 ; Q13233 (Homo sapiens, UniProt Q13233)
[3] = target: Nucleoside diphosphate kinase, mitochondrial ; NME4 ; O00746 (Homo sapiens, UniProt O00746)
[4] = target: Serine/threonine-protein kinase SIK2 ; SIK2 ; Q9H0K1 (Homo sapiens, UniProt Q9H0K1)
[5] = target: Mitogen-activated protein kinase 10 ; MAPK10 ; P53779 (Homo sapiens, UniProt P53779)
[6] = target: Dual specificity testis-specific protein kinase 1 ; TESK1 ; Q15569 (Homo sapiens, UniProt Q15569)
[7] = target: Serine/threonine-protein kinase pim-2 ; PIM2 ; Q9P1W9 (Homo sapiens, UniProt Q9P1W9)
[8] = target: Activin receptor type-1 ; ACVR1 ; Q04771 (Homo sapiens, UniProt Q04771)
[9] = target: Beta-adrenergic receptor kinase 2 ; GRK3 ; P35626 (Homo sapiens, UniProt P35626)
[10] = target: LIM domain kinase 2 ; LIMK2 ; P53671 (Homo sapiens, UniProt P53671)
[11] = target: Isoform 2 of Proto-oncogene tyrosine-protein kinase Src ; SRC ; P12931-2 (Homo sapiens, UniProt P12931)
[12] = target: Mitogen-activated protein kinase 9 ; MAPK9 ; P45984 (Homo sapiens, UniProt P45984)
[13] = target: Calcium/calmodulin-dependent protein kinase type II subunit alpha ; CAMK2A ; Q9UQM7 (Homo sapiens, UniProt Q9UQM7)
[14] = target: Serine/threonine-protein kinase BRSK2 ; BRSK2 ; Q8IWQ3 (Homo sapiens, UniProt Q8IWQ3)
[15] = target: Tyrosine-protein kinase FRK ; FRK ; P42685 (Homo sapiens, UniProt P42685)
[16] = target: Citron Rho-interacting kinase ; CIT ; O14578 (Homo sapiens, UniProt O14578)
[17] = read-out: BAY-1251152 (10 µM) / %Intensity relative to DMSO
[18] = read-out: BAY-1143572 (10 µM) / %Intensity relative to DMSO

Dual specificity testis-specific protein kinase 1 ; TESK1 ; Q15569, sequence (Q15569 whole entry): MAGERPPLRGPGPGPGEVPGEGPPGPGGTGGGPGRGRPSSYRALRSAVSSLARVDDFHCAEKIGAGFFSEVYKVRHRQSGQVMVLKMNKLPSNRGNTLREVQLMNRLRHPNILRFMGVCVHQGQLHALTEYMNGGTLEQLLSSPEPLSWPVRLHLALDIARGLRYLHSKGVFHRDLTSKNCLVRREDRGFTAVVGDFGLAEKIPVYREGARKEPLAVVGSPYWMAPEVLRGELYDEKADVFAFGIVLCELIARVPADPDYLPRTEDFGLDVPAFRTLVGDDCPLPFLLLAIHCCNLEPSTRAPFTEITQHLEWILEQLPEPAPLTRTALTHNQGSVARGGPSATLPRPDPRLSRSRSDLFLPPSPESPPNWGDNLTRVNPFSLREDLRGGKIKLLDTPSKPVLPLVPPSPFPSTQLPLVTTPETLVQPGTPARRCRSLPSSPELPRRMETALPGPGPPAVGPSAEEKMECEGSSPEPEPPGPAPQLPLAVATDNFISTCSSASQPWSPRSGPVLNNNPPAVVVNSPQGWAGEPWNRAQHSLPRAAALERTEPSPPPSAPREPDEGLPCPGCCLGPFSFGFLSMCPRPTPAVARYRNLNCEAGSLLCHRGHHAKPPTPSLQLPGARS
MAP/microtubule affinity-regulating kinase 3 ; MARK3 ; P27448, sequence (P27448 whole entry, one chain of several): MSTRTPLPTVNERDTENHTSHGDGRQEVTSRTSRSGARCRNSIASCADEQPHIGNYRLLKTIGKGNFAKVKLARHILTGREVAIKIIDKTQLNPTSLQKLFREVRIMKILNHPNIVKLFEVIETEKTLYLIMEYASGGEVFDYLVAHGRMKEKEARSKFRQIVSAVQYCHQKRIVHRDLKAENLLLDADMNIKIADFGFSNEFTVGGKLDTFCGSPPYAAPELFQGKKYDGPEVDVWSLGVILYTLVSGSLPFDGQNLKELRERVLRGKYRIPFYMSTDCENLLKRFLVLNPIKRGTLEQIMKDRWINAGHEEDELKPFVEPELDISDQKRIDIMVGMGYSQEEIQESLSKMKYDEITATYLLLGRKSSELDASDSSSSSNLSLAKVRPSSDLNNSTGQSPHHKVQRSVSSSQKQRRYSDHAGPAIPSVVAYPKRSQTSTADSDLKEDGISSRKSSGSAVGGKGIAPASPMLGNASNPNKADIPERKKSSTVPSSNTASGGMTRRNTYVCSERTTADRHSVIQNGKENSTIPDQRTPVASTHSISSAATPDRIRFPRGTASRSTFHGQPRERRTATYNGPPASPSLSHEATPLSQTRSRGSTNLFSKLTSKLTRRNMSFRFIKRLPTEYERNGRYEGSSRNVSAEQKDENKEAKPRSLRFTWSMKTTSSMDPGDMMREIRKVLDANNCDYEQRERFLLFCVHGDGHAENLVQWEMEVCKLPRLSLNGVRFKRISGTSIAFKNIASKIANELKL
Isoform 2 of Proto-oncogene tyrosine-protein kinase Src ; SRC ; P12931-2, sequence (P12931 whole entry, canonical isoform): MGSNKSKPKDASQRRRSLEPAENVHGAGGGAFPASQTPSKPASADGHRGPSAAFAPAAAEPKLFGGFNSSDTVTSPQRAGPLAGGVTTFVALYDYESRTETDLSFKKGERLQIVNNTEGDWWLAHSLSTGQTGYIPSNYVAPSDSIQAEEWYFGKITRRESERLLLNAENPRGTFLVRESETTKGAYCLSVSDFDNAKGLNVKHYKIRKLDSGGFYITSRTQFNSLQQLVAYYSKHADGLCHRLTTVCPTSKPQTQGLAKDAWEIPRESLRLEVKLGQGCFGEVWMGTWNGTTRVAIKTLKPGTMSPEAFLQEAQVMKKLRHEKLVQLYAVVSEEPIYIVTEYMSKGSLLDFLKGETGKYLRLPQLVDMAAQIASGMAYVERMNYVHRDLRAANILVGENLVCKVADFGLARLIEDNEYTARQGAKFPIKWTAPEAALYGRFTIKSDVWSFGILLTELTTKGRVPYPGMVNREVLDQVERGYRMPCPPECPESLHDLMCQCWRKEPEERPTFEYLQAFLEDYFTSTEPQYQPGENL
Mitogen-activated protein kinase kinase kinase 1 ; MAP3K1 ; Q13233, sequence (Q13233 whole entry): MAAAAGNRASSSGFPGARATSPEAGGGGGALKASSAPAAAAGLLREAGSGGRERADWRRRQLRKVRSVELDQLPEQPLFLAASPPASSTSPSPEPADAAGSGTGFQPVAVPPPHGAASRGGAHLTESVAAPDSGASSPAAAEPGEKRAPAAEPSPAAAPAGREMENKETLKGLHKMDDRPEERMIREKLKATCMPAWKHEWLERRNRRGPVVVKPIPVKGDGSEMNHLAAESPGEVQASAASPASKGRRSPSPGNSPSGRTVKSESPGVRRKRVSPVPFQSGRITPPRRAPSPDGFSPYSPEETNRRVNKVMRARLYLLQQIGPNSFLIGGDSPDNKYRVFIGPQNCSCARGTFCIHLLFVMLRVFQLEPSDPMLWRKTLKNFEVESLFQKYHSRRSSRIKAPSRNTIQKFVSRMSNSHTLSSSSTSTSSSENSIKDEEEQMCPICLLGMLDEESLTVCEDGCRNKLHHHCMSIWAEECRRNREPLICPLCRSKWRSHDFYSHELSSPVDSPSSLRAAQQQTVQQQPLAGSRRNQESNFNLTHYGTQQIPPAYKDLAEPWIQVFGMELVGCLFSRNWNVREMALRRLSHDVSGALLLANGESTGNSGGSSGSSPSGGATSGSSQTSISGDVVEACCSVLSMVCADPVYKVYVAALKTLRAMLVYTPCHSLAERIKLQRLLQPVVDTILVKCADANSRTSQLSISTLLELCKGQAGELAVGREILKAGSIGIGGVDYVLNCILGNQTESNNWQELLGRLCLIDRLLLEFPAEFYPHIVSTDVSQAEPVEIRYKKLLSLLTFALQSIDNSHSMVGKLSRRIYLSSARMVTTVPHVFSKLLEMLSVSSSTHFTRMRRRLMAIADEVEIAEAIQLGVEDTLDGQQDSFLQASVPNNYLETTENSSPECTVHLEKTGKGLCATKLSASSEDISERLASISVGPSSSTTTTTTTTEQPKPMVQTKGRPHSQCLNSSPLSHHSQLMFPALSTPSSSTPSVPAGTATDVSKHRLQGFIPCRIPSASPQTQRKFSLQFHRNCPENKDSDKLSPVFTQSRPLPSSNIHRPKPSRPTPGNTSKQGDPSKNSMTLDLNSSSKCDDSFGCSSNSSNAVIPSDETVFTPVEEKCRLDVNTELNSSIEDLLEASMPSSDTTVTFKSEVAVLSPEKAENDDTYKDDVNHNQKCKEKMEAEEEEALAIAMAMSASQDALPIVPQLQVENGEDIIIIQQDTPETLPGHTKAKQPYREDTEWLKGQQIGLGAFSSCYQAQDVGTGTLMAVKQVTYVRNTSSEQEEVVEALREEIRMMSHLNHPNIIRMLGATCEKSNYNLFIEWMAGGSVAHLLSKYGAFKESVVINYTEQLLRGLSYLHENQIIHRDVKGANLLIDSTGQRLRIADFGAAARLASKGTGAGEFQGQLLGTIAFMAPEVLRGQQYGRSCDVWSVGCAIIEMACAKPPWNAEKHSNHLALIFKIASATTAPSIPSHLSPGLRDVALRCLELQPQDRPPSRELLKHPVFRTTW
Mitogen-activated protein kinase 9 ; MAPK9 ; P45984, sequence (P45984 whole entry): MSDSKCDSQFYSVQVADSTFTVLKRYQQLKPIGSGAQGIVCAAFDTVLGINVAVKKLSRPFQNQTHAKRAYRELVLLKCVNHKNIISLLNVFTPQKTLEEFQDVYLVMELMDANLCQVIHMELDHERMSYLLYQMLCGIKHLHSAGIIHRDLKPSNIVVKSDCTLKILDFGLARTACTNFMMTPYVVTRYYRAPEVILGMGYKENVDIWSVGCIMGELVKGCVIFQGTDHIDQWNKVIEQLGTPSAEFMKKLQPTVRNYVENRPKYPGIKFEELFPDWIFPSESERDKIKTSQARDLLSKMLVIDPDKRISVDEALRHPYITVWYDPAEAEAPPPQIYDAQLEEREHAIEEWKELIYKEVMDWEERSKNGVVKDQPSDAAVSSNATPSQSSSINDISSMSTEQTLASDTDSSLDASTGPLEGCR
Serine/threonine-protein kinase SIK2 ; SIK2 ; Q9H0K1, sequence (Q9H0K1 whole entry, one chain of several): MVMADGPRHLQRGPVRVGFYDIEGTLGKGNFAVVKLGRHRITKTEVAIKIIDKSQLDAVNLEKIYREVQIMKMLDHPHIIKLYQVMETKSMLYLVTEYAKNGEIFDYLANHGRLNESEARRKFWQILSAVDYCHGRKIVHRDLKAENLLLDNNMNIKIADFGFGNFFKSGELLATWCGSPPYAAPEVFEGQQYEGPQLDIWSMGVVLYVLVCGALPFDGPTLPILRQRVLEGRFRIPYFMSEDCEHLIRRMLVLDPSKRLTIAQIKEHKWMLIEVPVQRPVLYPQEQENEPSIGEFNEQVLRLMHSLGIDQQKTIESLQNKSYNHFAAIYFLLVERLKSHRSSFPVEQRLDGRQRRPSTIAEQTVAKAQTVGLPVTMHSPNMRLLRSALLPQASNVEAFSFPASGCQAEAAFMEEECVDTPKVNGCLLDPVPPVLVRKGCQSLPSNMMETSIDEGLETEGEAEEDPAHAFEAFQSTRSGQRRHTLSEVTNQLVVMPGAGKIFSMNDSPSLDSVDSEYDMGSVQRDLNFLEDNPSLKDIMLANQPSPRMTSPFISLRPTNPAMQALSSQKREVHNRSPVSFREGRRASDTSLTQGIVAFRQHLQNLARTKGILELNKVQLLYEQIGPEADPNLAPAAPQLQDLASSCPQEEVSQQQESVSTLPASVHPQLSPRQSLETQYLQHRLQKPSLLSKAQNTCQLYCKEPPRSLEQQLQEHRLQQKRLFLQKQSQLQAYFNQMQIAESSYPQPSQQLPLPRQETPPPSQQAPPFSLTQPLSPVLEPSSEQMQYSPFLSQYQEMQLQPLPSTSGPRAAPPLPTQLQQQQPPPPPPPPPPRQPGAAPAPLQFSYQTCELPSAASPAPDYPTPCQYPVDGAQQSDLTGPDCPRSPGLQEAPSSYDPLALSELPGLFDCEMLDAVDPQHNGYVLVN
Nucleoside diphosphate kinase, mitochondrial ; NME4 ; O00746, sequence (O00746 whole entry): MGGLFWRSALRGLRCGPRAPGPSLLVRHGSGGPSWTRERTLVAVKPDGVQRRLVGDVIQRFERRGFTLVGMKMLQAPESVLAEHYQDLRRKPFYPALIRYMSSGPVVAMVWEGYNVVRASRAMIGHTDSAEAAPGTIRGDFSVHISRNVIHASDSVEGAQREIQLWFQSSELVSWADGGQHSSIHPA

remaining activity at 10 µM [1, 17]: 100%
remaining activity at 10 µM [2, 17]: 82.4%
remaining activity at 10 µM [3, 17]: 94.8%
remaining activity at 10 µM [4, 17]: 106%
remaining activity at 10 µM [5, 17]: 108%
remaining activity at 10 µM [6, 17]: 104%
remaining activity at 10 µM [7, 17]: 102%
remaining activity at 10 µM [8, 17]: 99.3%
remaining activity at 10 µM [9, 17]: 83.7%
remaining activity at 10 µM [10, 17]: 109%
remaining activity at 10 µM [11, 17]: 112%
remaining activity at 10 µM [12, 17]: 142%
remaining activity at 10 µM [13, 17]: 115%
remaining activity at 10 µM [14, 17]: 114%
remaining activity at 10 µM [15, 17]: 123%
remaining activity at 10 µM [16, 17]: 92.5%
SMILES: COc1cc(F)ccc1-c1cc(Nc2cc(CS(C)(=N)=O)ccn2)ncc1F (centres unmarked) [BAY-1251152]

remaining activity at 10 µM [1, 18]: 106%
remaining activity at 10 µM [2, 18]: 73.3%
remaining activity at 10 µM [3, 18]: 79.4%
remaining activity at 10 µM [4, 18]: 102%
remaining activity at 10 µM [5, 18]: 119%
remaining activity at 10 µM [6, 18]: 109%
remaining activity at 10 µM [7, 18]: 132%
remaining activity at 10 µM [8, 18]: 87.7%
remaining activity at 10 µM [9, 18]: 88.8%
remaining activity at 10 µM [10, 18]: 78%
remaining activity at 10 µM [11, 18]: 102%
remaining activity at 10 µM [12, 18]: 178%
remaining activity at 10 µM [13, 18]: 130%
remaining activity at 10 µM [14, 18]: 104%
remaining activity at 10 µM [15, 18]: 125%
remaining activity at 10 µM [16, 18]: 99.8%
SMILES: COc1cc(F)ccc1-c1ncnc(Nc2cccc(C[S@](C)(=N)=O)c2)n1 [BAY-1143572]
